The structures appear in SMILES notation.

The target in the test is EGFR (human) (UniProt P00533). As to conditions: bt474.
Chain of EGFR (human) (P00533 whole entry, looked up): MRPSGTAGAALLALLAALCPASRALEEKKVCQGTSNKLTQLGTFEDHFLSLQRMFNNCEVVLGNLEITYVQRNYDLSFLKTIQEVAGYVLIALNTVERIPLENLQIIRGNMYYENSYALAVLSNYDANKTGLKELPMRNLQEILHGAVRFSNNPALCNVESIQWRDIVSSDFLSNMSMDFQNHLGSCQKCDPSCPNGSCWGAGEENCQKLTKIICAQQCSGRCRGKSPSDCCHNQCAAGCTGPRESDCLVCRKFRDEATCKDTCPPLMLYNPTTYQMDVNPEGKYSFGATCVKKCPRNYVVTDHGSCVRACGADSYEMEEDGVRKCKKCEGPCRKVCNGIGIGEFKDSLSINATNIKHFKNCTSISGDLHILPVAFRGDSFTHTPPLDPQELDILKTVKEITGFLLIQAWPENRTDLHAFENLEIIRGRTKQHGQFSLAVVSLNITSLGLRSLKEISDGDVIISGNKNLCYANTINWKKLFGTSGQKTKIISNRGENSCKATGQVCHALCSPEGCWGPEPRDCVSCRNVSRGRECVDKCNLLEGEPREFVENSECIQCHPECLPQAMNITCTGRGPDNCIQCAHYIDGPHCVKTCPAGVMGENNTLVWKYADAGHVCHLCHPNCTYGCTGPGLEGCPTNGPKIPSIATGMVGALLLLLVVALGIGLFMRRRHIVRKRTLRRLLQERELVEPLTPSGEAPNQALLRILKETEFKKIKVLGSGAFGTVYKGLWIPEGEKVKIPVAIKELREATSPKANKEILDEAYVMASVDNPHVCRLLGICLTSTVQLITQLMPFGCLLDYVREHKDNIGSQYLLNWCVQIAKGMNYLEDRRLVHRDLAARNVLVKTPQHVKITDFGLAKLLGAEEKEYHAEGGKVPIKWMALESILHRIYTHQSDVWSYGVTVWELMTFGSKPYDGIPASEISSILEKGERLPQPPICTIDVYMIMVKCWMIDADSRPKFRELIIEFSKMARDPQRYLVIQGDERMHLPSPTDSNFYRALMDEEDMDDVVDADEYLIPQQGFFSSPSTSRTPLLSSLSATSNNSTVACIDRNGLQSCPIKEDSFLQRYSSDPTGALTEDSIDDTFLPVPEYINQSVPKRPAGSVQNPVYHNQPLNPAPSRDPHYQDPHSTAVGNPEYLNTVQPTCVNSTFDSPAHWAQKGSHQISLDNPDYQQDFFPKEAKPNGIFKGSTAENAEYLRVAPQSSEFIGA
In general, IC50 refers to the concentration needed to halve the response being measured. For the compound `COC[C@H]1CCN1C/C=C/C(=O)Nc1cc2c(Nc3ccc(F)c(Cl)c3)ncnc2cc1OC`, the IC50 amounted to 1.6 nM.

`CCOc1cc2ncnc(Nc3ccc(F)c(Cl)c3)c2cc1NC(=O)/C=C/CN1CC[C@@H]1COC` registered an IC50 of 2 nM.

`COCCOc1cc2ncnc(Nc3ccc(F)c(Cl)c3)c2cc1NC(=O)/C=C/CN1CC[C@@H]1COC` yielded an IC50 of 1.4 nM.

In turn, `COCC1CCN1C/C=C/C(=O)Nc1cc2c(Nc3ccc(F)c(Cl)c3)ncnc2cc1O[C@H]1CCOC1` (some centres undefined) returned an IC50 of 2.9 nM.

`O=C(/C=C/CN1CCC1CO)Nc1cc2c(Nc3ccc(F)c(Cl)c3)ncnc2cc1OC[C@H]1[C@@H]2COC[C@@H]21` (some centres undefined): the IC50 was 10.8 nM.

In the case of `COC[C@@H]1CCN1C/C=C/C(=O)Nc1cc2c(Nc3ccc(F)c(Cl)c3)ncnc2cc1OC`, the IC50 turned out to be 21.5 nM.

Regarding `O=C(/C=C/CN1CCC1CO)Nc1cc2c(Nc3ccc(F)c(Cl)c3)ncnc2cc1OC[C@@H]1COCCO1` (some centres undefined), the IC50 was determined as 17.5 nM.

Compound `COC[C@@H]1CCN1C/C=C/C(=O)Nc1cc2c(Nc3ccc(F)c(Cl)c3)ncnc2cc1OCC1CC1` returned an IC50 of 21.7 nM.

For the compound `O=C(/C=C/CN1CCC1CO)Nc1cc2c(Nc3ccc(F)c(Cl)c3)ncnc2cc1O[C@H]1CCOC1` (some centres undefined), the IC50 was 3.9 nM.

`O=C(/C=C/CN1CCC1CO)Nc1cc2c(Nc3ccc(F)c(Cl)c3)ncnc2cc1OC[C@H]1COCCO1` (some centres undefined) displayed an IC50 of 2.7 nM.

Compound `COc1cc2ncnc(Nc3ccc(F)c(Cl)c3)c2cc1NC(=O)/C=C/CN1CCC1CO` (centres undefined) displayed an IC50 of 2.3 nM.

`COCCOc1cc2ncnc(Nc3ccc(F)c(Cl)c3)c2cc1NC(=O)/C=C/CN1CC[C@H]1COC` returned an IC50 of 5.8 nM.

Compound `COC[C@H]1CCN1C/C=C/C(=O)Nc1cc2c(Nc3ccc(F)c(Cl)c3)ncnc2cc1OCC1CC1` displayed an IC50 of 6.6 nM.

Consider `O=C(/C=C/CN1CCC1CO)Nc1cc2c(Nc3ccc(F)c(Cl)c3)ncnc2cc1OCC1CC1` (centres undefined), for which the IC50 turned out to be 9.5 nM.

For the origin of these results see the Kinase Knowledgebase extract (Sharma et al. 2016).
